In PubChem BioAssay AID256 (DTP/NCI, 2004):
“And” between values parts separate entries of the source, which are not always exact repeats. Identical values can stand only once. Toxic doses and inconclusive results are not listed.

Test system: CD2F1 mice, L1210 leukemia ip, survival T/C
Test: NCI In Vivo Anticancer Drug Screen. Data for tumor model L1210 Leukemia (intraperitoneal) in CD2F1 (CDF1) mice
Conditions: higher = longer survival
In short: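 Antitumor effect is scored in animals hosting a serially transplanted tumor. Values compare compound-dosed animals against vehicle-only controls as a simple quotient.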

[1] = endpoint: mean survival time, dose: 25.0 mg/kg/injection, schedule: Q04DX002 (ip), vehicle: saline with Tween-80
[2] = endpoint: mean survival time, dose: 50.0 mg/kg/injection, schedule: Q04DX002 (ip), vehicle: saline with Tween-80
[3] = endpoint: mean survival time, dose: 100.0 mg/kg/injection, schedule: Q01DX001 (ip), vehicle: saline with Tween-80
[4] = endpoint: mean survival time, dose: 100.0 mg/kg/injection, schedule: Q01DX009 (ip), vehicle: saline with Tween-80
[5] = endpoint: mean survival time, dose: 200.0 mg/kg/injection, schedule: Q01DX001 (ip), vehicle: saline with Tween-80
[6] = endpoint: mean survival time, dose: 200.0 mg/kg/injection, schedule: Q01DX009 (ip), vehicle: saline with Tween-80
[7] = endpoint: mean survival time, dose: 400.0 mg/kg/injection, schedule: Q01DX001 (ip), vehicle: saline with Tween-80
[8] = endpoint: mean survival time, dose: 400.0 mg/kg/injection, schedule: Q01DX009 (ip), vehicle: saline with Tween-80
[9] = endpoint: mean survival time, dose: 200.0 mg/kg/injection, schedule: Q04DX003 (ip), vehicle: saline with Tween-80
[10] = endpoint: mean survival time, dose: 400.0 mg/kg/injection, schedule: Q04DX003 (ip), vehicle: saline with Tween-80
[11] = endpoint: mean survival time, dose: 100.0 mg/kg/injection, schedule: Q04DX002 (ip), vehicle: saline with Tween-80
[12] = endpoint: mean survival time, dose: 100.0 mg/kg/injection, schedule: Q04DX003 (ip), vehicle: saline with Tween-80
[13] = endpoint: mean survival time, dose: 25.0 mg/kg/injection, schedule: Q01DX009 (ip), vehicle: saline with Tween-80
[14] = endpoint: mean survival time, dose: 50.0 mg/kg/injection, schedule: Q01DX009 (ip), vehicle: saline with Tween-80
[15] = endpoint: mean survival time, dose: 200.0 mg/kg/injection, schedule: Q04DX003 (ip), vehicle: saline
[16] = endpoint: mean survival time, dose: 400.0 mg/kg/injection, schedule: Q04DX003 (ip), vehicle: saline

For `NC(=S)N/N=C/c1ccc(C(F)(F)F)cn1`, the T/C (endpoint: mean survival time, dose: 12.5 mg/kg/injection, schedule: Q04DX002 (ip), vehicle: saline with Tween-80) was 100 % of control and 102 % of control, the T/C (endpoint: mean survival time, dose: 13.3 mg/kg/injection, schedule: Q01DX001 (ip), vehicle: saline with Tween-80) was 96 % of control and the T/C (endpoint: mean survival time, dose: 13.3 mg/kg/injection, schedule: Q01DX009 (ip), vehicle: Klucel (hydroxypropylcellulose) (HPC)) was 100 % of control. The T/C (endpoint: mean survival time, dose: 13.3 mg/kg/injection, schedule: Q01DX009 (ip), vehicle: saline with Tween-80) was 122 % of control, the T/C (endpoint: mean survival time, dose: 20.0 mg/kg/injection, schedule: Q01DX001 (ip), vehicle: saline with Tween-80) was 100 % of control and the T/C (endpoint: mean survival time, dose: 20.0 mg/kg/injection, schedule: Q01DX009 (ip), vehicle: Klucel (hydroxypropylcellulose) (HPC)) was 96 % of control. For the same molecule, the T/C (endpoint: mean survival time, dose: 20.0 mg/kg/injection, schedule: Q01DX009 (ip), vehicle: saline with Tween-80) was 171 % of control, the T/C [1] was 105 % of control and 107 % of control and the T/C (endpoint: mean survival time, dose: 30.0 mg/kg/injection, schedule: Q01DX001 (ip), vehicle: saline with Tween-80) was 107 % of control. The T/C (endpoint: mean survival time, dose: 30.0 mg/kg/injection, schedule: Q01DX009 (ip), vehicle: Klucel (hydroxypropylcellulose) (HPC)) was 106 % of control, the T/C (endpoint: mean survival time, dose: 45.0 mg/kg/injection, schedule: Q01DX001 (ip), vehicle: saline with Tween-80) was 108 % of control and the T/C (endpoint: mean survival time, dose: 45.0 mg/kg/injection, schedule: Q01DX009 (ip), vehicle: saline with Tween-80) was 102 % of control. The T/C [2] was 105 % of control and the T/C (endpoint: mean survival time, dose: 67.5 mg/kg/injection, schedule: Q01DX001 (ip), vehicle: saline with Tween-80) was 111 % of control.
In the case of `OC1CCCCCCCCCCC1C(O)(C(F)(F)F)C(F)(F)F` (stereo not given), the T/C [3] is reported as 93 % of control and 89 % of control, the T/C [4] is reported as 86 % of control and the T/C [5] is reported as 89 % of control. The T/C [6] was 91 % of control, the T/C [7] was 91 % of control and the T/C [8] was 97 % of control.
In the case of `COc1ccc(C(C)N=CC(C)(C)C)cc1` (stereo not given), the T/C [9] is reported as 100 % of control and the T/C [10] is reported as 88 % of control.
In the case of `CCCOC(=O)c1ccc(N2N=C(C)CCC2=O)cc1`, the T/C [1] is reported as 97 % of control, the T/C [2] is reported as 102 % of control and the T/C [11] is reported as 97 % of control.
`CSC(=N/N=C/c1ccccc1O)SC` was tested, and the T/C [12] was 98 % of control, the T/C [9] was 96 % of control and the T/C [10] was 96 % of control.
With `NC(CO)C(O)c1ccc(N=Nc2ccc(O)cc2)cc1` (stereo not given) the T/C [13] was 100 % of control, the T/C [14] was 104 % of control and the T/C [4] was 94 % of control.
`O=c1c2cccc3cccc(c4n1NC=c1ccccc1=4)c32` was tested, and the T/C [1] was 100 % of control, the T/C [2] was 92 % of control and the T/C [11] was 96 % of control. For the same molecule, the T/C (endpoint: mean survival time, dose: 200.0 mg/kg/injection, schedule: Q04DX002 (ip), vehicle: saline with Tween-80) was 96 % of control.
In the case of `Cc1ccc(C(=Nc2ccccc2)N=P(c2ccccc2)(c2ccccc2)c2ccccc2)cc1`, the T/C (endpoint: median survival time, dose: 12.5 mg/kg/injection, schedule: Q01DX005 (ip), vehicle: saline with Tween-80) is reported as 102 % of control, the T/C (endpoint: median survival time, dose: 25.0 mg/kg/injection, schedule: Q01DX005 (ip), vehicle: saline with Tween-80) is reported as 105 % of control and the T/C (endpoint: median survival time, dose: 50.0 mg/kg/injection, schedule: Q01DX005 (ip), vehicle: saline with Tween-80) is reported as 105 % of control. For the same molecule, the T/C (endpoint: median survival time, dose: 100.0 mg/kg/injection, schedule: Q01DX005 (ip), vehicle: saline with Tween-80) was 91 % of control.
`O=C1CN(CCN2CC(=O)N(CN3CCOCC3)C(=O)C2)CC(=O)N1CN1CCOCC1` was tested, and the T/C (endpoint: median survival time, dose: 12.5 mg/kg/injection, schedule: Q01DX009 (ip), vehicle: water) was 111 % of control, the T/C (endpoint: median survival time, dose: 25.0 mg/kg/injection, schedule: Q01DX009 (ip), vehicle: water) was 118 % of control and the T/C (endpoint: median survival time, dose: 50.0 mg/kg/injection, schedule: Q01DX009 (ip), vehicle: water) was 164 % of control. For the same molecule, the T/C (endpoint: median survival time, dose: 100.0 mg/kg/injection, schedule: Q01DX009 (ip), vehicle: water) was 181 % of control and 188 % of control and the T/C (endpoint: median survival time, dose: 200.0 mg/kg/injection, schedule: Q01DX009 (ip), vehicle: water) was 97 % of control and 111 % of control.
For `O=CNc1ccc(O)cc1`, the T/C [12] was 93 % of control, the T/C [9] was 101 % of control and the T/C [10] was 103 % of control.
`C=CCOc1cccc(OCC=C)c1C` was tested, and the T/C (endpoint: mean survival time, dose: 100.0 mg/kg/injection, schedule: Q01DX009 (ip), vehicle: saline) was 102 % of control, the T/C (endpoint: mean survival time, dose: 200.0 mg/kg/injection, schedule: Q01DX009 (ip), vehicle: saline) was 100 % of control and the T/C (endpoint: mean survival time, dose: 400.0 mg/kg/injection, schedule: Q01DX009 (ip), vehicle: saline) was 100 % of control.
For `CN1C(CC(O)(c2ccccc2)c2ccccc2)CCCC1CC(O)(c1ccccc1)c1ccccc1` (stereo not given), the T/C [3] was 91 % of control, the T/C [5] was 96 % of control and the T/C [7] was 91 % of control.
With `OCC1OC(n2cnc3c(NO)nc(NO)nc32)C(O)C1O` (stereo not given) the T/C (endpoint: mean survival time, dose: 2.25 mg/kg/injection, schedule: Q01DX009 (ip), vehicle: saline) was 115 % of control, the T/C (endpoint: mean survival time, dose: 4.5 mg/kg/injection, schedule: Q01DX009 (ip), vehicle: saline) was 116 % of control and the T/C (endpoint: mean survival time, dose: 9.0 mg/kg/injection, schedule: Q01DX009 (ip), vehicle: saline) was 116 % of control. For the same molecule, the T/C (endpoint: mean survival time, dose: 18.0 mg/kg/injection, schedule: Q01DX009 (ip), vehicle: saline) was 122 % of control, the T/C (endpoint: mean survival time, dose: 36.0 mg/kg/injection, schedule: Q01DX009 (ip), vehicle: saline) was 192 % of control and the T/C (endpoint: median survival time, dose: 36.0 mg/kg/injection, schedule: Q01DX009 (ip), vehicle: saline) was 178 % of control. The T/C (endpoint: median survival time, dose: 54.0 mg/kg/injection, schedule: Q01DX009 (ip), vehicle: saline) was 188 % of control and the T/C (endpoint: median survival time, dose: 72.0 mg/kg/injection, schedule: Q01DX009 (ip), vehicle: saline) was 202 % of control.
For `Cc1cc(C(=O)O)c(C)c([N+](=O)[O-])c1`, the T/C [3] was 96 % of control, the T/C [5] was 96 % of control and the T/C [7] was 100 % of control.
For `CCOC(=O)CCC(NC(=O)c1ccc(N(C)S(=O)(=O)c2ccc(C)cc2)c(Cl)c1Cl)C(=O)OCC` (stereo not given), the T/C [12] was 105 % of control, the T/C [9] was 91 % of control and the T/C [10] was 94 % of control.
`OCC1OC(Nc2ncnc3snnc23)C(O)C1O` (stereo not given) was tested, and the T/C [15] was 157 % of control and the T/C [16] was 173 % of control.
`COc1ccc(C2NN(C)C3(O)C(=O)N(C4CCCCC4)CC23)cc1` (stereo not given) was tested, and the T/C [3] was 107 % of control, the T/C [5] was 94 % of control and the T/C [7] was 96 % of control.
In the case of `O=c1[nH]ccn1C1CCCCC1`, the T/C (endpoint: mean survival time, dose: 50.0 mg/kg/injection, schedule: Q01DX001 (ip), vehicle: other) is reported as 100 % of control, the T/C (endpoint: mean survival time, dose: 100.0 mg/kg/injection, schedule: Q01DX001 (ip), vehicle: other) is reported as 96 % of control and 97 % of control and the T/C (endpoint: mean survival time, dose: 200.0 mg/kg/injection, schedule: Q01DX001 (ip), vehicle: other) is reported as 97 % of control and 100 % of control.
`COc1ccc(OCCOC(=O)Nc2ccc(C)c([N+](=O)[O-])c2)cc1` was tested, and the T/C [14] was 92 % of control, the T/C [4] was 88 % of control and the T/C [6] was 92 % of control.
`COc1ccc(/C=N\N=C\c2ccc(OC)c(OC)c2)cc1OC` was tested, and the T/C (endpoint: mean survival time, dose: 100.0 mg/kg/injection, schedule: Q04DX003 (ip), vehicle: saline) was 105 % of control, the T/C [15] was 100 % of control and the T/C [16] was 94 % of control.
In the case of `NC(CS)=NC1CN2CCC1CC2` (stereo not given), the T/C (endpoint: mean survival time, dose: 50.0 mg/kg/injection, schedule: Q04DX002 (ip), vehicle: saline) is reported as 115 % of control and the T/C (endpoint: mean survival time, dose: 100.0 mg/kg/injection, schedule: Q04DX002 (ip), vehicle: saline) is reported as 101 % of control.
With `CN1CC2(c3ccccc3)CN(C)CC(c3ccccc3)(C1)C2=O` the T/C (endpoint: mean survival time, dose: 6.25 mg/kg/injection, schedule: Q01DX009 (ip), vehicle: saline with Tween-80) was 98 % of control, the T/C (endpoint: mean survival time, dose: 6.25 mg/kg/injection, schedule: Q04DX003 (ip), vehicle: saline with Tween-80) was 98 % of control and the T/C (endpoint: mean survival time, dose: 12.5 mg/kg/injection, schedule: Q01DX009 (ip), vehicle: saline with Tween-80) was 95 % of control. The T/C (endpoint: mean survival time, dose: 12.5 mg/kg/injection, schedule: Q04DX003 (ip), vehicle: saline with Tween-80) was 98 % of control, the T/C [13] was 103 % of control and the T/C (endpoint: mean survival time, dose: 25.0 mg/kg/injection, schedule: Q04DX003 (ip), vehicle: saline with Tween-80) was 92 % of control.
With `c1ccc2c(c1)nnc1ccccc12` the T/C [4] was 100 % of control, the T/C [6] was 110 % of control and the T/C [8] was 110 % of control.
In the case of `CCCC/C=C/C1(O)CCCCC1`, the T/C [14] is reported as 98 % of control, the T/C [4] is reported as 103 % of control and the T/C [6] is reported as 103 % of control.
